Several values for one entry are separate records, joined by “and”; a condition that tells them apart may be missing. Identical values can stand only once.
Legend:
[1] = Solubility / precipitation of NSAIDs in the vehicles tested; details: vehicles screened
[2] = Screening of NSAID and vehicle combinations: penetration through cattle skin in vitro (Table 13)
Procedure: Hair was removed using an electric clipper and the subcutaneous fat and musculature carefully trimmed away before the skin was cut into circular sections (approximately 2 cm diameter) using a metal wad punch, and placed in airtight ziplock bags, stored at −20° C. within 5 hr of slaughter.
The skin samples were defrosted immediately prior to use and mounted on Franz diffusion cells. […] A glass cover slip was applied to each donor chamber to prevent evaporation of the donor solution. Samples (200 μL) were collected at regular intervals from the receptor chambers via the sampling port and immediately replenished with equal volumes of fresh receptor solution. At the completion of each study, the diffusions cells were dismantled and the skin discs were rinsed and stored.

[3] = 10% Flunixin, vehicle KET65 (Cromollient-SCE-LQ-(MH), 100% Di-PPG2-Myreth-10-Adipate), sample time 6 hrs
[4] = 10% Flunixin, vehicle KET93: Isopronanol 50% IPN, 1-Ethyl-2-Pryrrolidone 45% EP, Menthol 50 ng/mL, Buffer/EVAP None, sample time 0.5 hrs
[5] = 10% Flunixin, vehicle KET93: Isopronanol 50% IPN, 1-Ethyl-2-Pryrrolidone 45% EP, Menthol 50 ng/mL, Buffer/EVAP None, sample time 2 hrs
[6] = 10% Flunixin, vehicle KET93: Isopronanol 50% IPN, 1-Ethyl-2-Pryrrolidone 45% EP, Menthol 50 ng/mL, Buffer/EVAP None, sample time 4 hrs
[7] = 10% Flunixin, vehicle KET93: Isopronanol 50% IPN, 1-Ethyl-2-Pryrrolidone 45% EP, Menthol 50 ng/mL, Buffer/EVAP None, sample time 6 hrs
[8] = 10% Flunixin, vehicle KET95: Isopronanol 50% IPN, 1-Ethyl-2-Pryrrolidone 45% EP, Menthol 50 ng/mL, Buffer/EVAP None, sample time 0.2 hrs
[9] = 10% Flunixin, vehicle KET95: Isopronanol 50% IPN, 1-Ethyl-2-Pryrrolidone 45% EP, Menthol 50 ng/mL, Buffer/EVAP None, sample time 0.5 hrs
[10] = 10% Flunixin, vehicle KET95: Isopronanol 50% IPN, 1-Ethyl-2-Pryrrolidone 45% EP, Menthol 50 ng/mL, Buffer/EVAP None, sample time 2 hrs
[11] = 10% Flunixin, vehicle KET95: Isopronanol 50% IPN, 1-Ethyl-2-Pryrrolidone 45% EP, Menthol 50 ng/mL, Buffer/EVAP None, sample time 4 hrs
[12] = 10% Flunixin, vehicle KET96: Isopronanol 50% IPN, Propylene glycol 45% PPG, Eucalyptus oil […] 1,8-cineole, Buffer/EVAP None, sample time not printed (sample KET1430, replicate 1)
[13] = Flunixin 10% in vehicle KET46: Ethanol 70% EthOH, Propylene glycol 30% PPG, terpene None, 0.1M citrate, sample time 6 hrs
[14] = Flunixin 10% in vehicle KET46: Ethanol 70% EthOH, Propylene glycol 30% PPG, terpene None, 0.1M citrate, sample time 8 hrs

Cc1c(Nc2ncccc2C(=O)O)cccc1C(F)(F)F [flunixin, flunixin meglumine]
solubility in vehicles [1]: most soluble in the majority of vehicles examined
Concentration ([2]; 10% Flunixin, vehicle KET65 (Cromollient-SCE-LQ-(MH), 100% Di-PPG2-Myreth-10-Adipate), sample time 0.5 hrs): 0 ng/mL
Concentration ([2]; 10% Flunixin, vehicle KET65 (Cromollient-SCE-LQ-(MH), 100% Di-PPG2-Myreth-10-Adipate), sample time 2 hrs): 0 ng/mL
analysis conc ([2]; 10% Flunixin, vehicle KET65 (Cromollient-SCE-LQ-(MH), 100% Di-PPG2-Myreth-10-Adipate), sample time 4 hrs): 0.006 and 0.005
Concentration [2, 3]: 18 ng/mL and 21 ng/mL and 15 ng/mL
analysis conc [2, 3]: 0.006 and 0.007 and 0.005
Concentration [2, 4]: 96 ng/mL
analysis conc [2, 4]: 0.032
Concentration [2, 5]: 102 ng/mL
analysis conc [2, 5]: 0.034
Concentration [2, 6]: 543 ng/mL
analysis conc [2, 6]: 0.181
Concentration [2, 7]: 579 ng/mL
analysis conc [2, 7]: 0.193
Concentration ([2]; 10% Flunixin, vehicle KET94: Isopronanol 50% IPN, Propylene glycol 45% PPG, Eucalyptus oil […] 1,8-cineole, Buffer/EVAP None, sample time 2 hrs): 135 ng/mL
Concentration ([2]; 10% Flunixin, vehicle KET94: Isopronanol 50% IPN, Propylene glycol 45% PPG, Eucalyptus oil […] 1,8-cineole, Buffer/EVAP None, sample time 2 hrs, listed as Flunixin): 123 ng/mL
Concentration [2, 8]: 114 ng/mL
analysis conc [2, 8]: 0.038
Concentration [2, 9]: 159 ng/mL and 237 ng/mL
analysis conc [2, 9]: 0.053 and 0.079
Concentration [2, 10]: 165 ng/mL and 246 ng/mL and 132 ng/mL
analysis conc [2, 10]: 0.055 and 0.082 and 0.044
Concentration [2, 11]: 186 ng/mL and 285 ng/mL and 147 ng/mL
analysis conc [2, 11]: 0.062 and 0.095 and 0.049
Concentration [2, 12]: 60 ng/mL
analysis conc [2, 12]: 0.02
Concentration ([2]; Flunixin 10% in vehicle KET46: Ethanol 70% EthOH, Propylene glycol 30% PPG, terpene None, 0.1M citrate, sample time 2 hrs): 0 ng/mL
Concentration ([2]; Flunixin 10% in vehicle KET46: Ethanol 70% EthOH, Propylene glycol 30% PPG, terpene None, 0.1M citrate, sample time 4 hrs): 0 ng/mL
Concentration [2, 13]: 36 ng/mL
analysis conc [2, 13]: 0.012
Concentration [2, 14]: 36 ng/mL
analysis conc [2, 14]: 0.012
analysis conc ([2]; Flunixin 10% in vehicle KET47: Ethanol 70% EthOH, Propylene glycol 30% PPG, Menthol 50 mg/mL, 0.1M citrate, sample time 0.5 hrs): 0.009
Concentration ([2]; Flunixin 50%, vehicle KET38: Ethanol 50% EthOH, no co-solvent, Menthol 50 mg/mL, sample time 0.5 hrs, replicates 1-3): 0 ng/mL
Concentration ([2]; Flunixin 50%, vehicle KET38: Ethanol 50% EthOH, no co-solvent, Menthol 50 mg/mL, sample time 2 hrs, replicates 1-3): 0 ng/mL
Concentration ([2]; Flunixin 50%, vehicle KET38: Ethanol 50% EthOH, no co-solvent, Menthol 50 mg/mL, sample time 4 hrs, replicates 1-3): 0 ng/mL
Concentration ([2]; Flunixin 50%, vehicle KET38: Ethanol 50% EthOH, no co-solvent, Menthol 50 mg/mL, sample time 6 hrs, replicates 1-3): 0 ng/mL
Concentration ([2]; Flunixin 50%, vehicle KET38: Ethanol 50% EthOH, no co-solvent, Menthol 50 mg/mL, sample time 8 hrs, replicates 1-3): 0 ng/mL

Reference: patent publication US20250213512A1, “TRANSDERMAL ANALGESIC FORMULATION” (MEAT & LIVESTOCK AUSTRALIA LTD, priority 2017, published 2025)
